According to patent US8710233B2 (Gruenenthal GmbH, priority 2005, dated 2014):

How the values were obtained:
[1] = system: formaldehyde induced nociceptive behaviour; test: Formaldehyde test in mice, second (late) phase; format: in vivo, mouse; conditions: mouse, read-out: inhibition formaldehyde test (n = 10)
vanilloid receptor (VR1) = target: T1, vanilloid receptor (VR1) (Homo sapiens, UniProt Q8NER1); test: FLIPR Ca2+ influx assay on CHO K1 cells transfected with the VR1 gene (pharmacological method II); format: cell-based; conditions: table 4; capsaicin; read-out: Ki (human) Cap.
T1 construct: expressed in transfected cells; host or cells: CHO K1 cells (ECACC), stably transfected
T1 sequence (Q8NER1 whole entry): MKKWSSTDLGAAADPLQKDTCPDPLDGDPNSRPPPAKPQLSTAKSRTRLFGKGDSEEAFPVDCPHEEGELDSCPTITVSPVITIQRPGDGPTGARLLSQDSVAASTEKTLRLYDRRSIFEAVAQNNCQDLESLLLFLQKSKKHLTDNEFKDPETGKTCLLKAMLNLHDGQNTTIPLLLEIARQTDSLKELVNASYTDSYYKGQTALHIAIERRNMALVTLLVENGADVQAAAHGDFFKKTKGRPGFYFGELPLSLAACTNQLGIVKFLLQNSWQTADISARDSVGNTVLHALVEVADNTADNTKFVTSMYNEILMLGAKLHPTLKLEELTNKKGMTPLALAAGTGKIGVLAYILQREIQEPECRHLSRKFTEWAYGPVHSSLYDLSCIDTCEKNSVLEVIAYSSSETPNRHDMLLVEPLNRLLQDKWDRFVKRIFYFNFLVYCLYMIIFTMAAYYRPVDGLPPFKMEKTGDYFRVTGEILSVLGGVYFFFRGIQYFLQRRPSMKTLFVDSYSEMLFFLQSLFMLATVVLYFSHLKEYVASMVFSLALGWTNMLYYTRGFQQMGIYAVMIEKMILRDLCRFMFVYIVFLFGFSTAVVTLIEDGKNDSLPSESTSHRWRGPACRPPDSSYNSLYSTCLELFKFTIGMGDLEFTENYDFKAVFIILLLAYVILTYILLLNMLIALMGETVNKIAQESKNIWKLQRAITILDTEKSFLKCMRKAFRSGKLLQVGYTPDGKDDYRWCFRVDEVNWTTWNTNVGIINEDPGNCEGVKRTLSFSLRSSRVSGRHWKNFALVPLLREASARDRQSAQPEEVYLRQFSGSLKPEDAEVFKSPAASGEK

Structure (SMILES): CC(C(=O)NCc1ccc(C(F)(F)F)nc1OCCC(C)(C)C)c1ccc(NS(C)(=O)=O)c(F)c1 (centres unmarked) [Example 125]
- inhibition in vivo at 0.3 mg/kg ([1]; 0.3 mg/kg body weight po): 24%
- Ki (vanilloid receptor (VR1)): 0.9 nM

Structure (SMILES): Cc1ccc(Cl)cc1Nc1nc(C(F)(F)F)ccc1CNC(=O)C(C)c1ccc(NS(C)(=O)=O)c(F)c1 (centres unmarked) [Example 136, N-[2-(5-chloro-2-methyl-phenylamino)-6-trifluoromethyl-pyridin-3-ylmethyl]-2-(3-fluoro-4-methylsulfonamido-phenyl)-propionamide]
- Ki (vanilloid receptor (VR1)): 14 nM

Structure (SMILES): CC(C(=O)NCc1ccc(C(C)(C)C)nc1OC1CCCC1)c1ccc(NS(C)(=O)=O)c(F)c1 (centres unmarked) [Example 234, N-(6-tert-butyl-2-cyclopentyloxy-pyridin-3-ylmethyl)-2-(3-fluoro-4-methylsulfonamido-phenyl)-propionamide]
- inhibition in vivo at 0.03 mg/kg ([1]; 0.03 mg/kg body weight po): 5%
- Ki (vanilloid receptor (VR1)): 1.5 nM
